“And” between values parts separate entries of the source, which are not always exact repeats. Equal entries are not always repeated.
System: 188146-221-R-J1-PDC complex spheroid viability
Test: Anticancer human tumor 188146-221-R-J1-PDC patient-derived colon adenocarcinoma cell line growth inhibition [POLQ]
Conditions: for viability, T/C: stronger effect = lower value
Description: Multicellular complex tumor spheroid response to Polymerase (POL) inhibitors (novobiocin, ART-558, RP6685) in combination with a variety of drugs and investigational agents in selected tumor cell lines
The POL inhibitors (novobiocin, ART-558, and RP6685) were evaluated both individually and in combination with standard of care and investigational anticancer small molecules within a complex spheroid model of solid tumors. . Complex spheroids include a stromal component modeled by human endothelial cells (HUVEC) and fibroblasts modeled by human mesenchymal stem cells (MSCs). The concentration ranges selected for each drug and investigational agent were based upon clinically achievable concentrations if the clinical Cmax of the agent was known.
Compounds. The drugs and investigational agents: novobiocin (NSC847541), ART-558 (NSC835418), RP-6685 (NSC848927), peposertib (NSC802822), ceralasertib (NSC780249), elimusertib (NSC800525), camonsertib (NSC841442), AZD-1390 (NSC803789), olaparib (NSC753686), talazoparib (NSC767125), rucaparib (NSC756644), sotorasib (NSC818433), MRTX-1133 (NSC836407), SN-38 (NSC673596), topotecan (NSC609699), epotoside (NSC141540), doxorubicin (NSC123127), gemcitabine (NSC613327), 5-fluorouracil (NSC19893), paclitaxel (NSC125973), vemurafenib (NSC761431), MSA-2 (NSC828583), SN-011 (NSC837082), adavosertib (NSC754352), prexasertib (NSC758257), carboplatin (NSC241240) and oxaliplatin (NSC266046), were obtained from the National Cancer Institute (NCI) Developmental Therapeutics Program Chemical Repository (21). The FDA-approved anticancer drug set is available from the Developmental Therapeutics Program at https://dtp.cancer.gov/organization/dscb/obtaining/. […] The stock solutions were prepared in dimethyl sulfoxide (DMSO, Sigma-Aldrich, St. Louis, MO, cat. D2650), except for the platinum compounds which were prepared in saline (Quality Biological, Gaithersburg, MD, cat. 114-055-101), at 800-fold the tested concentration and stored at -70 degrees C prior to their use. All drugs and investigational agents were tested over a range starting from a high concentration at or near the clinical Cmax and decreasing in half-log increments. If the clinical Cmax for an agent had not been determined, the highest concentration tested was 10 microM, except for SN-38, which was tested at a high concentration of 1 microM.
Cell Culture. All cells were maintained in an incubator at 37 degrees C and 5% CO2 with 95% humidity. The PDC lines were cultured according to standard operating procedures established by the NCI PDMR (https://pdmr.cancer.gov). Table 3 of the manuscript, lists the cell lines along with the number of the three cell types plated to form the mct-spheroids and media for tumor cell growth. After thawing, all PDC lines, except 997537-175-T-J1-PDC and 415267-285-R-J2-PDC, were cultured in Matrigel-coated flasks prepared with a working solution of 1X Ham's F-12 nutrient mix, without supplementation (Thermo Fisher Scientific, cat. 11765054), 100 U/mL penicillin-streptomycin (Thermo Fisher Scientific, cat. 15140122), and 2.5% Matrigel (Corning Inc., Corning, NY, cat. 354248) for the first three passages. The two PDC lines 997537-175-T-J1-PDC and 415267-285-R-J2-PDC were cultured on uncoated flasks. The 857933-349-R-J2-PDC line was cultured in 6C/Colon 1B media containing advanced DMEM/F-12 (Thermo Fisher Scientific, cat. 12634028), 10 mM HEPES (Thermo Fisher Scientific, cat. 15630080), 1X GlutaMAX supplement (Thermo Fisher Scientific, cat. 35050061), 0.1 mg/mL primocin (InvivoGen, San Diego, CA, cat. ant-pm-2), 10% defined fetal bovine serum, heat inactivated (HyClone Laboratories Inc., Logan, UT, cat. SH30070.03HI), 50% L-WRN conditioned media (ATCC, cat. CRL-3276), 1.25 mM N-Acetyl-L-cysteine (Sigma-Aldrich, cat. A9165), 10 mM nicotinamide (Sigma-Aldrich, cat. N0636), 1X B-27 supplement (Thermo Fisher Scientific, cat. 17504044), 1X N-2 supplement (Thermo Fisher Scientific, cat. […]

[1] = curve of first compound, second compound 0.0316 µM
[2] = curve of first compound, second compound 0.1 µM
[3] = curve of first compound, second compound 0.316 µM
[4] = curve of first compound, second compound 1 µM
[5] = curve of first compound, second compound 3.16 µM
[6] = curve of first compound, second compound 10 µM
[7] = second compound 0.0316 µM, first compound 0.0316 µM
[8] = second compound 0.0316 µM, first compound 0.1 µM
[9] = second compound 0.0316 µM, first compound 0.316 µM
[10] = second compound 0.0316 µM, first compound 1 µM
[11] = second compound 0.0316 µM, first compound 3.16 µM
[12] = second compound 0.0316 µM, first compound 10 µM
[13] = second compound 0.1 µM, first compound 0.0316 µM
[14] = second compound 0.1 µM, first compound 0.1 µM
[15] = second compound 0.1 µM, first compound 0.316 µM
[16] = second compound 0.1 µM, first compound 1 µM
[17] = second compound 0.1 µM, first compound 3.16 µM
[18] = second compound 0.1 µM, first compound 10 µM
[19] = second compound 0.316 µM, first compound 0.0316 µM
[20] = second compound 0.316 µM, first compound 0.1 µM
[21] = second compound 0.316 µM, first compound 0.316 µM
[22] = second compound 0.316 µM, first compound 1 µM
[23] = second compound 0.316 µM, first compound 3.16 µM
[24] = second compound 0.316 µM, first compound 10 µM
[25] = second compound 1 µM, first compound 0.0316 µM
[26] = second compound 1 µM, first compound 0.1 µM
[27] = second compound 1 µM, first compound 0.316 µM
[28] = second compound 1 µM, first compound 1 µM
[29] = second compound 1 µM, first compound 3.16 µM
[30] = second compound 1 µM, first compound 10 µM
[31] = second compound 3.16 µM, first compound 0.0316 µM
[32] = second compound 3.16 µM, first compound 0.1 µM
[33] = second compound 3.16 µM, first compound 0.316 µM
[34] = second compound 3.16 µM, first compound 1 µM
[35] = second compound 3.16 µM, first compound 3.16 µM
[36] = second compound 3.16 µM, first compound 10 µM
[37] = second compound 10 µM, first compound 0.0316 µM
[38] = second compound 10 µM, first compound 0.1 µM
[39] = second compound 10 µM, first compound 0.316 µM
[40] = second compound 10 µM, first compound 1 µM
[41] = second compound 10 µM, first compound 3.16 µM
[42] = second compound 10 µM, first compound 10 µM
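Note: spheroids exposed to compounds for seven days.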
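Throughout, for viability, T/C: 100% = DMSO vehicle control viability.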

CCCS(=O)(=O)Nc1ccc(F)c(C(=O)c2c[nH]c3ncc(-c4ccc(Cl)cc4)cc23)c1F
viability, T/C (compound 0.0316 µM): 104% and 98.2% and 96.2%
viability, T/C (compound 0.1 µM): 108% and 92.2% and 102%
viability, T/C (compound 0.316 µM): 111% and 95.7% and 82.7%
viability, T/C (compound 1 µM): 90.1% and 79.7% and 80.1%
viability, T/C (compound 3.16 µM): 83.9% and 85.2% and 81.8%
viability, T/C (compound 10 µM): 40.6% and 36.2% and 25.4%
IC50 (curve of compound): 7.79 µM and 7.06 µM and 5.83 µM

O=c1[nH]cc(F)c(=O)[nH]1 + Cc1cccc(N(C)C(=O)C2C(O)CCN2c2nc(C)cc(C(F)(F)F)c2C#N)c1
IC50 [1]: 2.44 µM
IC50 [2]: 1.38 µM
IC50 [3]: 1.82 µM
IC50 [4]: 1.68 µM
IC50 [5]: 1.34 µM
IC50 [6]: 1.69 µM
viability, T/C [7]: 107%
viability, T/C [8]: 91.7%
viability, T/C [9]: 73.5%
viability, T/C [10]: 57.7%
viability, T/C [11]: 50.8%
viability, T/C [12]: 34.5%
viability, T/C [13]: 102%
viability, T/C [14]: 96.7%
viability, T/C [15]: 73.9%
viability, T/C [16]: 52.6%
viability, T/C [17]: 45%
viability, T/C [18]: 37%
viability, T/C [19]: 93%
viability, T/C [20]: 87%
viability, T/C [21]: 80%
viability, T/C [22]: 57%
viability, T/C [23]: 43.5%
viability, T/C [24]: 34.9%
viability, T/C [25]: 79.8%
viability, T/C [26]: 84.6%
viability, T/C [27]: 74.3%
viability, T/C [28]: 57.1%
viability, T/C [29]: 41.7%
viability, T/C [30]: 37.5%
viability, T/C [31]: 90.2%
viability, T/C [32]: 82.5%
viability, T/C [33]: 72.9%
viability, T/C [34]: 50.2%
viability, T/C [35]: 44.7%
viability, T/C [36]: 36.2%
viability, T/C [37]: 91.1%
viability, T/C [38]: 85.5%
viability, T/C [39]: 76.6%
viability, T/C [40]: 51.7%
viability, T/C [41]: 47.9%
viability, T/C [42]: 34.4%

CC1COCCN1c1cc(C2(S(C)(=N)=O)CC2)nc(-c2ccnc3[nH]ccc23)n1 (stereo not drawn)
viability, T/C (compound 0.0316 µM): 100% and 105% and 99.8%
viability, T/C (compound 0.1 µM): 95.1% and 99.5% and 101%
viability, T/C (compound 0.316 µM): 89.3% and 114% and 98%
viability, T/C (compound 1 µM): 94.8% and 91.6% and 89.8%
viability, T/C (compound 3.16 µM): 68.1% and 61.6% and 60.5%
viability, T/C (compound 10 µM): 23.7% and 27.7% and 21.9%
IC50 (curve of compound): 5.05 µM and 4.62 µM and 4.33 µM

COc1cc2cc(C(=O)CCC(=O)O)sc2cc1OC + Nc1ccc(C#CCN(C(=O)Cc2ncc(C(F)(F)F)cc2C(F)(F)F)c2ccc(F)cc2)nn1
IC50 [1]: > 10 µM
IC50 [2]: > 10 µM
IC50 [3]: > 10 µM
IC50 [4]: > 10 µM
IC50 [5]: > 10 µM
IC50 [6]: > 10 µM
viability, T/C [7]: 115%
viability, T/C [8]: 102%
viability, T/C [9]: 96.4%
viability, T/C [10]: 119%
viability, T/C [11]: 90.2%
viability, T/C [12]: 105%
viability, T/C [13]: 105%
viability, T/C [14]: 115%
viability, T/C [15]: 107%
viability, T/C [16]: 96.2%
viability, T/C [17]: 118%
viability, T/C [18]: 102%
viability, T/C [19]: 109%
viability, T/C [20]: 100%
viability, T/C [21]: 89.3%
viability, T/C [22]: 107%
viability, T/C [23]: 107%
viability, T/C [24]: 97.4%
viability, T/C [25]: 117%
viability, T/C [26]: 116%
viability, T/C [27]: 106%
viability, T/C [28]: 96.3%
viability, T/C [29]: 104%
viability, T/C [30]: 102%
viability, T/C [31]: 105%
viability, T/C [32]: 114%
viability, T/C [33]: 96.8%
viability, T/C [34]: 119%
viability, T/C [35]: 109%
viability, T/C [36]: 118%
viability, T/C [37]: 101%
viability, T/C [38]: 130%
viability, T/C [39]: 98.5%
viability, T/C [40]: 113%
viability, T/C [41]: 104%
viability, T/C [42]: 120%

From PubChem BioAssay AID1963851 (Molecular Pharmacology Branch, DTP, NCI, 2024)
